Earlier results as cited in patent US20240350583A1, “COMPOSITION FOR PREVENTING OR TREATING FIBROTIC DISEASES, COMPRISING HAPLN1” (Chung Ang University Industry Academic Cooperation …, priority 2021, published 2024).

System: bleomycin-induced pulmonary fibrosis
Settings: group treated with prednisolone (Oku et al.); cited from earlier work

## C[C@]12C=CC(=O)C=C1CC[C@@H]1[C@@H]2[C@@H](O)C[C@@]2(C)[C@H]1CC[C@]2(O)C(=O)CO [prednisolone]
  level of TGFβ1, a measure of anti-fibrotic efficacy: no decrease
  levels of inflammation-related biomarkers: decreased
